According to article doi:10.1101/382226v2 (biorxiv, 2019):

Columns and labels:
NOX4 = target: T1, NOX4 (Homo sapiens, UniProt Q9NPH5); assay: Amplex Red/HRP H2O2 fluorescence, intact transfected HEK293 cells; format: cell-based
T1 sequence (Q9NPH5 1-578): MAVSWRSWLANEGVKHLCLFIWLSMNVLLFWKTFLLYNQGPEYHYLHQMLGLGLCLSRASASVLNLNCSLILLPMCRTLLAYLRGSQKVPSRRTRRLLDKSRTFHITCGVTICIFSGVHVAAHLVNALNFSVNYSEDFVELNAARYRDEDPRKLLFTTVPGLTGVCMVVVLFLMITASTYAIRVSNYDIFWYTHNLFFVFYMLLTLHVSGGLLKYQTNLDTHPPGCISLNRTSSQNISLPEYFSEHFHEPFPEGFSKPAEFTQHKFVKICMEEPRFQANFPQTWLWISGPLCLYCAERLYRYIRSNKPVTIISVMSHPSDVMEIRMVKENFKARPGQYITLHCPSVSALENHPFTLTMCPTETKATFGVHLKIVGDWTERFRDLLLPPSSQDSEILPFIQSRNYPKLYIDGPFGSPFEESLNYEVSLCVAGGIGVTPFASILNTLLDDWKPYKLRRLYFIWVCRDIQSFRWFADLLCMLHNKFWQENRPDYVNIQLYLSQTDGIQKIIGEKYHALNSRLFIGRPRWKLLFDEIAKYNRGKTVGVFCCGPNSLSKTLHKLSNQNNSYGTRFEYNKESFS
T1 sequence (P13498 2-195 partner): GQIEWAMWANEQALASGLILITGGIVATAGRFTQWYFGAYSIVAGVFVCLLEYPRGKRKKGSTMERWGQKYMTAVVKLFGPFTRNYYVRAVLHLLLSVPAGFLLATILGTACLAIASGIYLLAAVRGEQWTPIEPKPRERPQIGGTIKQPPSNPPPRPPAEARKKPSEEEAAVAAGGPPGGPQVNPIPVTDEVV

NOX1 = NOX1 (Homo sapiens, UniProt Q9Y5S8); assay: luminol/HRP chemiluminescence, intact transfected HEK293 cells; format: cell-based
NOX1, sequence (Q9Y5S8 whole entry, one chain of several): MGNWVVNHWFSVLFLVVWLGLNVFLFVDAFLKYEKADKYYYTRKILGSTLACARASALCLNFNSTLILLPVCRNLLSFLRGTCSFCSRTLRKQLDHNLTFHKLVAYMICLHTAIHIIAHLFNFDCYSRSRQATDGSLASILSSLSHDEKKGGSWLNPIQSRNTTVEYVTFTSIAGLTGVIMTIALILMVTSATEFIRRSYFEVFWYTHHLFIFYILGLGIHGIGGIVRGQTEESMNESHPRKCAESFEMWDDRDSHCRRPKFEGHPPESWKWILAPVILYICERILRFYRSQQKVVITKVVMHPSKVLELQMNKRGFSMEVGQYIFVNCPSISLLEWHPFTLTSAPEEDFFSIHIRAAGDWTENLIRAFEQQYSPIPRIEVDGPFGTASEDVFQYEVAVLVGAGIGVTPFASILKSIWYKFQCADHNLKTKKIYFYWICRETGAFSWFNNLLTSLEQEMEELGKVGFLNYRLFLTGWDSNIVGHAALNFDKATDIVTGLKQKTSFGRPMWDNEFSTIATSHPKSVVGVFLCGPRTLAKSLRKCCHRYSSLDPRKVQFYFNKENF
NOX1, sequence (Q8NFA2 whole entry partner, one chain of several): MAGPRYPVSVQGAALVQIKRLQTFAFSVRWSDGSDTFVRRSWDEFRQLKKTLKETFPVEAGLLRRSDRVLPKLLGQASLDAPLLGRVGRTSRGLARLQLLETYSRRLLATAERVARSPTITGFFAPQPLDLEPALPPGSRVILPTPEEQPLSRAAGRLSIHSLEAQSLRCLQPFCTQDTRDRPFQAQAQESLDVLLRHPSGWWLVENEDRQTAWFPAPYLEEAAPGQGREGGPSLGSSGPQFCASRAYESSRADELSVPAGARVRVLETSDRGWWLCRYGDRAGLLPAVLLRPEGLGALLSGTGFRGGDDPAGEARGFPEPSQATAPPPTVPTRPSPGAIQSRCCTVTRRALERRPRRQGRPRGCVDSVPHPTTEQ
NOX1, sequence (Q86UR1 whole entry partner, one chain of several): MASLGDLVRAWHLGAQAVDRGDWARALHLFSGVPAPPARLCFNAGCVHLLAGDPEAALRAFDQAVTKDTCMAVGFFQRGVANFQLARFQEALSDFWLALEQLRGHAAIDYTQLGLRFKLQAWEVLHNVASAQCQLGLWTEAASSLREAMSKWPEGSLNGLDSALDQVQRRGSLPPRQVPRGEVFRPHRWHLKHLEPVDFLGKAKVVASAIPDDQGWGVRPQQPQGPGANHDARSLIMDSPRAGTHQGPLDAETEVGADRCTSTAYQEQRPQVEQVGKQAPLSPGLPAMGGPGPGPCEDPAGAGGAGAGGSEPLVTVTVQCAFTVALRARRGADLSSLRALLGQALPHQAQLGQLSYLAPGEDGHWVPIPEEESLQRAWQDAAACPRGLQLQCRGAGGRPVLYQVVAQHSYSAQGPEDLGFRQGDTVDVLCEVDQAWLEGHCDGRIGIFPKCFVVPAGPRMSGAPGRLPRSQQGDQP

Work on `c1ccc2c(c1)Nc1nc3ccccc3nc1N2` [ML090, 5,12-Dihydroquinoxalino(2,3-B)quinoxaline] yielded an IC50 (NOX4) of 20.4 nM and an IC50 (NOX1) of 25.1 nM.
